Like-named read-outs stand apart in the source and are kept apart here.
Legend:
[1] = system: HCV replicon cells Huh 9B; test: HCV replicon assay (luciferase readout); format: cell-based
Description: (§1) HCV replicon cells Huh 9B (ReBlikon), containing the firefly luciferase-ubiquitin-neomycin phosphotransferase fusion protein and EMCV-IRES driven HCV polyprotein with cell culture adaptive mutations.
Cells were cultured at 37° C. in a 5% CO2 environment and split twice a week on seeding at 2×10^6 cells/flask on day 1 and 1×10^6 3 days later. G418 at 0.5 mg/ml was added to the culture medium but not the assay medium.
The culture medium consisted of DMEM with […] glucose and glutamax (Gibco 61965-026) supplemented with 1× non-essential amino acids (Invitrogen 11140-035), penicillin (100 IU/ml)/streptomycin (100 μg/ml) (Invitrogen 15140-122), FCS (10%, 50 ml) and 1 mg/ml G418 (Invitrogen 10131-027) & 10% Australian foetal calf serum (Invitrogen 10099-141).
A flask of cells was trypsinised and a cell count carried out. Cells were diluted to 100,000 cells/ml and 100 μl of this used to seed one opaque white 96-well plate (for the replicon assay) and one flat-bottomed clear plate (for the tox assay) for every seven compounds to be tested for IC50. Wells G12 and H12 were left empty in the clear plate as the blank. Plates were then incubated at 37° C. in a 5% CO2 environment for 24 h.
(§2) On the following day compound dilutions are made up in medium at twice their desired final concentration in a clear round bottomed plate. All dilutions have a final DMSO concentration of 1%.
Once the dilution plate had been made up, controls and compounds were transferred to the assay plate (containing the cells) at 100 μl /well in duplicate plates. Exception: no compound was added to wells A1 and A2 of either plate and 100 μl of 1% DMSO was added to these instead. Plates were then incubated at 37° C. with 5% CO2 for 72 h.
At the end of the incubation time, the cells in the white plate were harvested by washing 23.5 mM beetle luciferin (Promega E1603), 26 mM ATP (Sigma 0-2060) in […] Tris buffer pH 7.8 aliquoted and stored at −80 C was thawed and diluted 1:50 in luciferase assay buffer (20 mM Tricine (Sigma T-0377), 1.07 mM magnesium carbonate hydroxide (Sigma M-5671), 0.1 mM EDTA (Sigma E-5134), 2.67 mM MgSO4 (BDH 101514Y), 33.3 mM dithiothreitol (Sigma 150460) pH 7.8).
The M injector of the microplate luminometer (Lmax, Molecular Devices) was primed with 5×300 μl injections of the diluted substrate. After 5-60 min incubation in lysis buffer at room temperature, a plate was inserted into the luminometer and 100 μl luciferase assay reagent was added by the injector on the luminometer. The signal was measured using a 1 second delay followed by a 4 second measurement programme.

[2] = system: HCV replicon cells Huh 9B; format: cell-based
Description: as §1
A flask of cells was trypsinised and a cell count carried out. […] Wells G12 and H12 were left empty in the clear plate as the blank. Plates were then incubated at 37° C. in a 5% CO2 environment for 24 h.
as §2
Exception: no compound was added to wells A1 and A2 of either plate and 100 μl of 1% DMSO was added to these instead. Plates were then incubated at 37° C. with 5% CO2 for 72 h.
The clear plate was stained with 100 μl 0.5% methylene blue in 50% ethanol at room temperature for 1 h, followed by solvation of the absorbed methylene blue in 100 μl per well of 1% lauroylsarcosine. Absorbance of the plate was measured on a microplate spectrophotometer (Molecular Devices) and the absorbance for each concentration of compound expressed as a proportion of the relative DMSO control.

[3] = Hepatitis C virus, 72 h, concentration reducing replicon level (luciferase activity) by 50% vs untreated cell control, 72 h incubation
[4] = concentration reducing total cell area by 50% relative to DMSO controls, methylene blue, absorbance 620 nm, 72 h incubation

Row | SMILES | IC50 [1, 3] [nM] | TD50 [2, 4] | IC50 [1] [nM] | TD50 [2]
1 | CCC1(c2ccc(NC(=O)c3ccc(-c4cc(NC(=O)C5CC5)ccc4C)cc3)cc2)CCC(=O)NC1=O (stereo not shown) [Example 220, 5′-(Cyclopropanecarbonyl-amino)-2′-methyl-biphenyl-4-carboxylic acid [4-(3-ethyl-2,6-dioxo-piperidin-3-yl)-phenyl]-amide] | < 1000 | * (* < 50 μM) |  | 
2 | Cc1ccc(C(=O)Nc2ccc(C(=O)N3CCCCC3)cc2)cc1-c1ccc(C(=O)Nc2ccc(CN3CCS(=O)(=O)CC3)cc2)cc1 [Example 144, 6-Methyl-biphenyl-3,4′-dicarboxylic acid 4′-{[4-(1,1-dioxo-1lambda*6*-thiomorpholin-4-ylmethyl)-phenyl]-amide} 3-{[4-(piperidine-1-carbonyl) -phenyl]-amide}] |  |  | 1000 to 5000 | * (key: * < 50 μM; ** > 50 μM)
3 | CCCS(=O)(=O)N1CCN(Cc2ccc(NC(=O)c3ccc(-c4cc(NC(=O)[C@@H]5CCCN5)ccc4OC(F)(F)F)cc3)cc2)CC1 [Example 236, (S)-Pyrrolidine-2-carboxylic acid (4′-{4-[4-(propane-1-sulfonyl)-piperazin-1-ylmethyl]-phenylcarbamoyl}-6-trifluoromethoxy-biphenyl-3-yl)-amide] | 1000 to 5000 | * (* < 50 μM) |  | 
4 | Cc1ccc(C(=O)Nc2ccc(N3CCOCC3)cc2)cc1-c1ccc(C(=O)Nc2ccc3[nH]ccc3c2)cc1 [Example 45, 6-Methyl-biphenyl-3,4′-dicarboxylic acid 4′-[(1H-indol-5-yl)-amide] 3-[(4-morpholin-4-yl-phenyl)-amide]] |  |  | 1000 to 5000 | ** (key: * < 50 μM; ** > 50 μM)
5 | Cc1ccc(C(=O)Nc2ccc(N3CCOCC3)cc2)cc1-c1ccc(C(=O)NCCN2CCCCC2)cc1 [Example 6, 6-Methyl-biphenyl-3,4′-dicarboxylic acid 3-[(4-morpholin-4-yl-phenyl)-amide] 4′-[(2-piperidin-1-yl-ethyl)-amide]] |  |  | 1000 to 5000 | * (key: * < 50 μM; ** > 50 μM)
6 | Cc1ccc(NC(=O)c2ccc(CN3CCS(=O)(=O)CC3)cc2)cc1-c1ccc(C(=O)Nc2ccc(CN3CCS(=O)(=O)CC3)cc2)cc1 [Example 161, 5′-[4-(1,1-Dioxo-1lambda*6*-thiomorpholin-4-ylmethyl)-benzoylamino]-2′-methyl-biphenyl-4-carboxylic acid [4-(1,1-dioxo-1lambda*6*-thiomorpholin-4-ylmethyl)-phenyl]-amide] | 1000 to 5000 | * (* < 50 μM) |  | 
7 | O=C(Nc1ccc(CN2CCS(=O)(=O)CC2)cc1)c1ccc(-c2cc(NC(=O)C3CCCCC3)ccc2Cl)cc1 [Example 193, 5′-(Cyclohexanecarbonyl-amino)-2′-chloro-biphenyl-4-carboxylic acid [4-(1,1-dioxo-1lambda*6*-thiomorpholin-4-ylmethyl)-phenyl]-amide] | < 1000 | * (* < 50 μM) |  | 
8 | COc1ccc(S(=O)(=O)Nc2ccc(N3CCOCC3)cc2)cc1-c1ccc(C(=O)Nc2ccc(CN3CCN(S(=O)(=O)C(C)C)CC3)cc2)cc1 [Example 246, 2′-Methoxy-5′-(4-morpholin-4-yl-phenylsulfamoyl)-biphenyl-4-carboxylic acid [4-(4-propane-2-sulfonyl-piperazin-1-ylmethyl)-phenyl]-amide] | < 1000 | * (* < 50 μM) |  | 
9 | Cc1ccc(C(=O)Nc2ccc(N3CCOCC3)cc2)cc1-c1ccc(C(=O)Nc2cccc(F)c2)cc1 [Example 27, 6-Methyl-biphenyl-3,4′-dicarboxylic acid 4′-[(3-fluoro-phenyl)-amide] 3-[(4-morpholin-4-yl-phenyl)-amide]] |  |  | 1000 to 5000 | ** (key: * < 50 μM; ** > 50 μM)
10 | O=C(Nc1ccc(CN2CCS(=O)(=O)CC2)cc1)c1ccc(-c2cc(NC(=O)C3CCCCC3)ccc2F)cc1 [Example 191, 5′-(Cyclohexanecarbonyl-amino)-2′-fluoro-biphenyl-4-carboxylic acid [4-(1,1-dioxo-1lambda*6*-thiomorpholin-4-ylmethyl)-phenyl]-amide] | > 5000 | * (* < 50 μM) |  | 
11 | Cc1ccc(NC(=O)c2ccc(Br)cc2)cc1-c1ccc(C(=O)Nc2ccc(-c3cnco3)cc2)cc1 [Example 212, 5′-(4-Bromo-benzoylamino)-2′-methyl-biphenyl-4-carboxylic acid (4-oxazol-5-yl-phenyl)-amide] | > 5000 | ** (** > 50 μM) |  | 
12 | O=C(Nc1ccc(CN2CCS(=O)(=O)CC2)cc1)c1ccc(-c2cc(NC(=O)C3CCCCC3)ccc2OC(F)(F)F)cc1 [Example 192, 5′-(Cyclohexanecarbonyl-amino)-2′-trifluoromethoxy-biphenyl-4-carboxylic acid [4-(1,1-dioxo-1lambda*6*-thiomorpholin-4-ylmethyl)-phenyl]-amide] | < 1000 | * (* < 50 μM) |  | 
13 | O=C(Nc1ccc(CN2CCS(=O)(=O)CC2)cc1)c1ccc(-c2cccc(NC(=O)C3CCC3)c2)cc1 [Example 169, 3′-(Cyclobutanecarbonyl-amino)-biphenyl-4-carboxylic acid [4-(1,1-dioxo-1lambda*6*-thiomorpholin-4-ylmethyl)-phenyl]-amide] | < 1000 | * (* < 50 μM) |  | 
14 | Cc1ccc(C(=O)Nc2ccc(N3CCOCC3)cc2)cc1-c1ccc(CNCc2cccc(Cl)c2)cc1 [Example 96, 4′-[(3-Chloro-benzylamino)-methyl]-6-methyl-biphenyl-3-carboxylic acid (4-morpholin-4-yl-phenyl)-amide] | 1000 to 5000 | ** (** > 50 μM) |  | 
15 | Cc1ccc(NC(=O)c2cccs2)cc1-c1ccc(C(=O)Nc2ccc(CN3CCS(=O)(=O)CC3)cc2)cc1 [Example 155, Thiophene-2-carboxylic acid {4′-[4-(1,1-dioxo-1lambda*6*-thiomorpholin-4-ylmethyl)-phenylcarbamoyl]-6-methyl-biphenyl-3-yl}-amide] | < 1000 | * (* < 50 μM) |  | 
16 | CC(=O)Nc1ccc(NC(=O)c2ccc(-c3cc(NC(=O)c4ccc(N5CCOCC5)cc4)ccc3C)cc2)cc1 [Example 86, 2′-Methyl-5′-(4-morpholin-4-yl-benzoylamino)-biphenyl-4-carboxylic acid (4-acetylamino-phenyl)-amide] | 1000 to 5000 | ** (** > 50 μM) |  | 
17 | O=C(Nc1ccc(CN2CCS(=O)(=O)CC2)cc1)c1ccc(-c2cccc(NC(=O)C3CC3)c2)cc1 [Example 168, 3′-(Cyclopropanecarbonyl-amino)-biphenyl-4-carboxylic acid [4-(1,1-dioxo-1lambda*6*-thiomorpholin-4-ylmethyl)-phenyl]-amide] | < 1000 | * (* < 50 μM) |  | 
18 | CC(=O)C(=O)Nc1ccc(C)c(-c2ccc(C(=O)Nc3ccc(CN4CCS(=O)(=O)CC4)cc3)cc2)c1 [Example 190, 2′-Methyl-5′-(2-oxo-propionylamino)-biphenyl-4-carboxylic acid [4-(1,1-dioxo-1lambda*6*-thiomorpholin-4-ylmethyl)-phenyl]-amide] | < 1000 | * (* < 50 μM) |  | 
19 | Cc1ccc(C(=O)NC2CCCC2)cc1-c1ccc(C(=O)Nc2ccc(CN3CCS(=O)(=O)CC3)cc2)cc1 [Example 148, 6-Methyl-biphenyl-3,4′-dicarboxylic acid 3-cyclopentylamide 4′-{[4-(1,1-dioxo-1lambda*6*-thiomorpholin-4-ylmethyl)-phenyl]-amide}] |  |  | 1000 to 5000 | * (key: * < 50 μM; ** > 50 μM)
20 | Cc1ccc(C(=O)Nc2ccc(N3CCOCC3)cc2)cc1-c1ccc(C(=O)Nc2ccc3cn[nH]c3c2)cc1 [Example 67, 6-Methyl-biphenyl-3,4′-dicarboxylic acid 4′-[(1H-indazol-6-yl)-amide] 3-[(4-morpholin-4-yl-phenyl)-amide]] |  |  | < 1000 | ** (key: * < 50 μM; ** > 50 μM)
